Assay results reported in patent US10676452B2, “Compound for the prophylaxis or treatment of organ damage” (Sulfateq B.V., priority 2015, dated 2020).
Entries after “also recorded” stand apart in the source; their conditions may differ.

Legend:
[1] = Solubility of SUL121 in 50% DMSO in saline solution; type: physicochemical; settings: aqueous with cosolvent or surfactant or cyclodextrin, kinetic from dmso stock, read-out: solubility in 50% DMSO (completely soluble up to)
Method: (§1) Cell culture grade DMSO was obtained from Sigma-Aldrich (Zwijndrecht, the Netherlands). 0.9% sterile saline solutions were from Baxter (Utrecht, the Netherlands). (6-hydroxy-2,5,7,8-tetramethylchroman-2-yl)(piperazin-1-yl)methanone (SUL121) was supplied by Sulfateq BV, Groningen, the Netherlands supplied in a formulation of 500 mM in 100% DMSO corresponding to 177 g/l. Osmotic minipumps (Alzet, USA) are resistant to DMSO concentrations≤50%. Therefore, the solubility of SUL121 was tested in 50% DMSO in saline solution. SUL121 was completely soluble in 50% DMSO up to a concentration of 12.6 g/1. Alzet model 2004 pumps were loaded with 200 μl of 12.6 g/1 SUL121 solution or with 200 ul 50% DMSO solution (vehicle). According to pump specifications 6 μl of SUL121 was administered per day, resulting in a daily dose of 2.2 mg/kg/day for a 35 gram mouse.

db/db mice [2] = experiment: Metabolic data (body weight, water intake, urine output, non-fasting blood glucose) in db/db mouse Type 2 diabetes model; type: in vivo
Text: Given its effectiveness in the model of renal ischemia and reperfusion, it was hypothesized that compound SUL 121 will also protect the kidney in an experimental model of obesity induced Type 2 diabetes (T2DM). Therefore, the effects of SUL121 on the development of albuminuria and renal damage in the mouse Type 2 diabetes model was studied. For the study, the db/db mouse model was employed. […] Diabetes starts at the age of 6-8 weeks and adequate levels of kidney damage and albuminuria can be observed at the age of 18 weeks.
To study the effects of SUL121 on the development of diabetes, treatment with SUL121 started from the age of 10 weeks until the age of 18 weeks. In addition, to study the effects of SUL 121 on healthy animals, control mice were treated similarly. A non-treated control group was included in the study, to serve as healthy untreated control. Drug and vehicle were administered by implantation of osmotic minipumps at the age of 10 and 14 weeks.
as §1
(§2) Male db/db mice (n=16) and lean heterozygous control animals (n=16) were purchased from Harlan UK (strain JAX000642). All mice were housed individually. Water and food were given ad-libitum. Four groups of mice were investigated: • 1) db/db+vehicle (diabetic control) • 2) db/db+Sul121 (treated diabetic group) • 3) wt+vehicle (non-diabetic control) • 4) wt+Sul121 (to study effect of drug only) Drug and vehicle were administered by implantation of osmotic minipumps at the age of 10 (t=0) and 14 weeks (t=4). Metabolic cages and blood pressure measurements were performed every two weeks. Blood samples could not be obtained by cheek puncture, therefore blood was collected from the retro orbital plexus at the age of 10 (t=0) and 12 weeks (t=2). At the age of 18 weeks (t=8) all animals were terminated and blood was collected by cardiac puncture. Urinary Measurements
(§3) Urinary glucose concentrations were measured by the glucose oxidase method with a specific electrode from 24-h urine collections after the samples were stored in −20° C. The urinary creatinine concentration was measured by standard laboratory methods (Jaffe method without deproteinization, DiaSys Diagnostic Systems, Holzheim, Germany). The median values of the 24-h urine collections and of the albumin-to-creatinine ratio were calculated. In addition, mouse albumin levels in urine were determined manually using a mouse albumin Elisa kit (Abcam, Cambridge, UK). Urinary hydrogen peroxide levels were determined using an Amplex Red H2O2 assay kit (Life technologies, Leusden, the Netherlands).

db/db mice [3] = experiment: Arterial blood pressure by tail-cuff method; type: in vivo, mouse
Method: as §2
Arterial blood pressure was measured in anaesthetized mice (2% isoflurane) by means of the tail-cuff method (PS-200A; Riken-Kaihatsu; Tokyo, Japan). For each animal, blood pressure values represent the mean of three to ten recordings obtained in a single session.

db/db mice [4] = experiment: Organ (kidney) weights at termination; type: in vivo, mouse; settings: diabetic mice, after 8 weeks of treatment
Method: as §2
After 8 weeks of treatment, mice were terminated and organ weights were measured (FIG. 2). […] SUL 121 treatment normalized kidney weights to non-diabetic control values.

db/db mice [5] = experiment: Urinary albumin excretion and albumin/creatinine ratio; type: in vivo, mouse
Method: as §2, §3
To test whether SUL 121 treatment could reduce renal damage, albumin leakage into the urine was measured at all time points for diabetic animals. Total albumin excretion per day (AER) was calculated by multiplying urinary albumin concentration with daily urinary output (FIG. 3A).

db/db mice [6] = experiment: Renal histology: PAS staining, focal glomerulosclerosis (FGS) score; type: in vivo, mouse; settings: diabetic mice
Text: Four-micrometer-thick formalin fixed sections were deparaffinized and stained for periodic acid-Schiff (PAS) for quantification of focal glomerulosclerosis (FGS) and tubular injury. FGS was semiquantitatively scored in a blinded fashion by determining the level of mesangial expansion and focal adhesion in each quadrant in a glomerulus and expressed on a scale from 0 to 4. If 25% of the glomerulus was affected, it was scored as 1, 50% as 2, 75% as 3, and 100% as 4. In total, 50 glomeruli per kidney were analyzed, and the total FGS score was calculated by multiplying the score by the percentage of glomeruli with the same FGS score. Thus the total FGS score ranged from 0 to 200.

mouse aortic rings = experiment: Organ bath experiments with the isolated aorta of treated mice (ACh relaxation after PE precontraction); type: in vivo; settings: for max. relaxation to ACh (remaining % of PE preconstriction): aortic rings
Method: Freshly isolated thoracic aortic rings (1.5-2 mm in length) were mounted on 200-μm stainless wires in individual myograph baths (Danish Myo Technology, Aarhus, Denmark). Briefly, baths containing 6 ml Krebs solution were warmed to 37° C. and preequilibrated and continuously aerated with 95% O2-5% CO2 to maintain pH at 7.4. The length of the aortic strips was assessed by microscopy. Aortic rings were equilibrated for 40 min until they were at a steady baseline. Rings were then primed and checked for viability by two consecutive stimulations with KCl (60 mM) followed by washings and renewed stabilization to obtain reproducible contractile responses.
Contraction responses were measured as cumulative concentration-response curves to phenylephrine (PE; 10 nM-100 μM) followed by a single concentration of KCl (90 mM). Endothelium-dependent relaxation was assessed by obtaining concentration-response curves to ACh (10 nM-300 μM) in rings precontracted with PE (1 μM) followed by stimulation with a high concentration of the NO donor sodium nitroprusside (SNP; 0.1 mM) to assess maximal endothelium-independent dilation.
To study the role of the endothelium in vasoconstrictor effects, rings were denuded by removing the endothelial cell layer by rubbing the luminal side of the vessel with a moistened wire. To examine the contribution of different EDRFs in modulating vasoconstrictor responses and mediating endothelium-dependent relaxation, inhibitors of PG and NO synthesis were used. To this end, PG components were assessed by preincubating rings (20 min.) with the nonspecific cyclooxygenase inhibitor indomethacin (10 μM). The NO component was examined by subsequent incubation with both NO synthesis inhibitor NG-monomethyl-L-arginine (L-NMMA; 1 μM) and indomethacin. The remaining ACh-mediated relaxation was attributed to an unidentified EDHF.
Contractions to KCl and PE are given in milliNewtons. Relaxation responses to ACh and SNP are expressed as percentages of the preconstriction with PE. In addition to that, the area under each individual curve (AUC; in arbitrary units) was determined for ACh-induced relaxation (SigmaPlot version 10.0, Systat Software, San Jose, Calif.). The AUC was used to present total endothelium-dependent relaxation and for the subsequent analysis of differences in ACh-mediated relaxation with and without inhibitors present to estimate the contribution of the different EDRFs, i.e., PGs for the part sensitive to cycloxygenase inhibition with indomethacin, NO for the part sensitive to NOS inhibition with L-NMMA, and EDHF by means of exclusion of PG and NO (34).

db/db mice [7] = experiment: Plasma hydrogen peroxide (ROS production in diabetes); type: in vivo, mouse; settings: diabetic mice
Method: as §3
Enhanced reactive oxygen species (ROS) production is a well-established phenomenon in diabetes. To study the effects of SUL121 treatment on ROS production, hydrogen peroxide, a stable metabolite of ROS, was measured in plasma (FIG. 6). SUL 121 treatment normalized H2O2 levels in plasma.

[8] = tested on: mouse renal mesangial cells; experiment: In-vitro model of diabetes: intracellular ROS under high glucose and insulin; type: cell-based
Text: To further explore the mechanisms through which SUL 121 mediates renal protection in diabetes, an in-vitro model of diabetes was employed. For this, mouse renal mesangial cells were exposed to conditions simulating type 2 diabetes (high glucose and insulin). Exposure to high glucose/insulin increased intracellular ROS levels by approximately 70% (FIG. 7).

rat kidney = settings: blood flow stopped and restored; cited from earlier work

Cc1c(C)c2c(c(C)c1O)CCC(C)(C(=O)N1CCNCC1)O2 (stereo not shown) [SUL121, (6-hydroxy-2,5,7,8-tetramethylchroman-2-yl)(piperazin-1-yl)methanone]
solubility [1]: ≥ 12.6 mg/mL | effect on urine output and water intake (db/db mice [2]; all time points other than week 8): did not significantly affect | effect on blood glucose levels (db/db mice [2]; diabetic db/db mice): did not affect | non-fasting blood glucose level (db/db mice [2]; diabetic db/db mice, end of the experiment): 35.3 ± 1.1 mM | non-fasting blood glucose level (db/db mice [2]; diabetic db/db mice, start of the experiment): 27.2 ± 1.3 mM | urine output (db/db mice [2]; diabetic db/db mice, week 8): 11.2 ± 3.8 g | water intake (db/db mice [2]; diabetic db/db mice, week 8): 10.9 ± 3.9 g | effect on blood pressure (db/db mice [3]; diabetic mice): did not affect | effect on blood pressure (db/db mice [3]; non-diabetic wild type mice, week 2): lowered | effect on blood pressure (db/db mice [3]; week 6): did not affect | effect on kidney weights (kidney hypertrophy) (db/db mice [4]): normalized | effect on total albumin excretion per day (AER) (db/db mice [5]; diabetic animals, weeks 6 and 8): prevented the progression | albumin/creatinine ratio (ACR) (db/db mice [5]; diabetic mice, week 6): 534 ± 79 µg/mg | albumin/creatinine ratio (ACR) (db/db mice [5]; diabetic mice, week 8 (not statistically significant vs diabetic control)): 866 ± 91 µg/mg | effect on AER (db/db mice [5]; non-diabetic animals): did not affect | total albumin excretion per day (AER) (db/db mice [5]; non-diabetic animals, week 8): 31.3 ± 4.6 µg/day | albumin/creatinine ratio (ACR) (db/db mice [5]; wild type animals, week 8): 55 ± 6 µg/mg | effect on focal glomerular sclerosis (FGS) scores (db/db mice [6]): significantly reduced | effect on focal glomerular sclerosis (FGS) scores (db/db mice [6]; listed as SUL 121): significantly lowered | effect on NO and prostaglandin components of relaxation (mouse aortic rings; diabetic animals): non-significant (p=0.06) increase | effect on EDHF component of total relaxation (mouse aortic rings; diabetic animals, with L-NMMA and indomethacin): significantly increasing | effect on endothelium mediated relaxation (mouse aortic rings; diabetic mice): restores | max. relaxation to ACh (remaining % of PE preconstriction) (mouse aortic rings; treated diabetic group): 11.3±2.3% | max. relaxation to ACh (remaining % of PE preconstriction) (mouse aortic rings; treated non-diabetic controls): 9.2±1.6% | effect on plasma H2O2 levels (db/db mice [7]): normalized | effect on high glucose/insulin induced increase of intracellular ROS ([8]; cells pretreated, high glucose and insulin): substantially inhibited; also recorded: normalized | effect on intracellular ROS production, compound alone ([8]; without high glucose/insulin): did not affect | reduction of ischemia and reperfusion damage (rat kidney): very effective
